Values joined by “and” are separate entries in the source; they are usually repeats but may differ in a detail not shown here. Identical values can stand only once. Inconclusive results and toxic doses are left out.
Tested on: P388 leukemia ip, CD2F1 mice, survival T/C
Experiment: NCI In Vivo Anticancer Drug Screen. Data for tumor model P388 Leukemia (intraperitoneal) in CD2F1 (CDF1) mice
Settings: endpoint: median survival time, higher = longer survival
Method in brief: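 Mice carrying the transplanted tumor received test compound or vehicle. Survival was recorded in each group, and the value is the treated-group measurement divided by that of the vehicle-treated control group.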

[1] = dose: 50.0 mg/kg/injection, schedule: Q01DX005 (ip), vehicle: Klucel (hydroxypropylcellulose) (HPC)
[2] = dose: 100.0 mg/kg/injection, schedule: Q01DX005 (ip), vehicle: Klucel (hydroxypropylcellulose) (HPC)
[3] = dose: 12.5 mg/kg/injection, schedule: Q04DX002 (ip), vehicle: saline with Tween-80
[4] = dose: 25.0 mg/kg/injection, schedule: Q04DX002 (ip), vehicle: saline with Tween-80
[5] = dose: 50.0 mg/kg/injection, schedule: Q04DX002 (ip), vehicle: saline with Tween-80
[6] = dose: 50.0 mg/kg/injection, schedule: Q01DX009 (ip), vehicle: Klucel (hydroxypropylcellulose) (HPC)
[7] = dose: 100.0 mg/kg/injection, schedule: Q01DX009 (ip), vehicle: Klucel (hydroxypropylcellulose) (HPC)
[8] = dose: 200.0 mg/kg/injection, schedule: Q01DX009 (ip), vehicle: Klucel (hydroxypropylcellulose) (HPC)
[9] = dose: 50.0 mg/kg/injection, schedule: Q01DX009 (ip), vehicle: saline with Tween-80
[10] = dose: 100.0 mg/kg/injection, schedule: Q01DX009 (ip), vehicle: saline with Tween-80
[11] = dose: 200.0 mg/kg/injection, schedule: Q01DX009 (ip), vehicle: saline with Tween-80
[12] = dose: 60.0 mg/kg/injection, schedule: Q01DX005 (ip), vehicle: saline with Tween-80
[13] = dose: 120.0 mg/kg/injection, schedule: Q01DX005 (ip), vehicle: saline with Tween-80
[14] = dose: 100.0 mg/kg/injection, schedule: Q04DX002 (ip), vehicle: saline with Tween-80
[15] = dose: 25.0 mg/kg/injection, schedule: Q01DX009 (ip), vehicle: saline with Tween-80

CCCCCOC(=S)S
T/C (dose: 9.37 mg/kg/injection, schedule: Q01DX009 (ip), vehicle: saline): 109 % of control | T/C (dose: 9.37 mg/kg/injection, schedule: Q04DX003 (ip), vehicle: saline with Tween-80): 95 % of control | T/C (dose: 18.75 mg/kg/injection, schedule: Q01DX009 (ip), vehicle: saline): 100 % of control | T/C (dose: 18.75 mg/kg/injection, schedule: Q04DX003 (ip), vehicle: saline with Tween-80): 109 % of control | T/C (dose: 37.5 mg/kg/injection, schedule: Q01DX009 (ip), vehicle: saline): 100 % of control | T/C (dose: 37.5 mg/kg/injection, schedule: Q04DX003 (ip), vehicle: saline with Tween-80): 104 % of control

COc1cccc2sc(-n3c(C)nc4ccccc4c3=O)nc12
T/C (dose: 60.0 mg/kg/injection, schedule: Q01DX005 (ip), vehicle: Klucel (hydroxypropylcellulose) (HPC)): 95 % of control | T/C (dose: 120.0 mg/kg/injection, schedule: Q01DX005 (ip), vehicle: Klucel (hydroxypropylcellulose) (HPC)): 87 % of control | T/C (dose: 240.0 mg/kg/injection, schedule: Q01DX005 (ip), vehicle: Klucel (hydroxypropylcellulose) (HPC)): 87 % of control

CCC(Br)C1C/C=C\CC2OC(C=C=CBr)CC2O1 (stereo not given)
T/C (dose: 3.12 mg/kg/injection, schedule: Q01DX005 (ip), vehicle: Klucel (hydroxypropylcellulose) (HPC)): 100 % of control | T/C (dose: 3.75 mg/kg/injection, schedule: Q01DX001 (ip), vehicle: Klucel (hydroxypropylcellulose) (HPC)): 94 % of control | T/C (dose: 6.25 mg/kg/injection, schedule: Q01DX005 (ip), vehicle: Klucel (hydroxypropylcellulose) (HPC)): 95 % of control and 98 % of control | T/C (dose: 7.5 mg/kg/injection, schedule: Q01DX001 (ip), vehicle: Klucel (hydroxypropylcellulose) (HPC)): 90 % of control | T/C (dose: 12.5 mg/kg/injection, schedule: Q01DX005 (ip), vehicle: Klucel (hydroxypropylcellulose) (HPC)): 95 % of control and 104 % of control | T/C (dose: 15.0 mg/kg/injection, schedule: Q01DX001 (ip), vehicle: Klucel (hydroxypropylcellulose) (HPC)): 91 % of control | T/C (dose: 25.0 mg/kg/injection, schedule: Q01DX005 (ip), vehicle: Klucel (hydroxypropylcellulose) (HPC)): 91 % of control and 100 % of control | T/C (dose: 30.0 mg/kg/injection, schedule: Q01DX001 (ip), vehicle: Klucel (hydroxypropylcellulose) (HPC)): 91 % of control | T/C [1]: 98 % of control | T/C [2]: 96 % of control

COc1ccc2c(ccc3c(=O)c4c([nH]c32)CCC4)n1
T/C [3]: 111 % of control | T/C [4]: 114 % of control | T/C [5]: 95 % of control

CCN1CSC(=S)N(Cc2ccccc2)C1
T/C [6]: 99 % of control | T/C [7]: 101 % of control | T/C [8]: 101 % of control

Cc1noc(C)c1Br
T/C [9]: 97 % of control | T/C [10]: 102 % of control | T/C [11]: 102 % of control

CC[C@@H]1C[C@H]2CC3c4[nH]c5ccc(O)cc5c4CCN(C2)C31
T/C (dose: 100.0 mg/kg/injection, schedule: Q01DX001 (ip), vehicle: saline with Tween-80): 99 % of control

Cc1cc2cc3n(c2nn1)N=C(Cl)CC3
T/C [12]: 86 % of control | T/C [13]: 101 % of control

Cc1nnc2n1-c1ccc(Cl)cc1C(c1ccccc1)=[N+]([O-])C2
T/C [9]: 103 % of control | T/C [10]: 104 % of control

Cn1c(=O)c2nc(-c3ccc(Cl)cc3)oc2n(C)c1=O
T/C (dose: 50.0 mg/kg/injection, schedule: Q01DX009 (ip), vehicle: saline): 104 % of control | T/C (dose: 100.0 mg/kg/injection, schedule: Q01DX009 (ip), vehicle: saline): 100 % of control | T/C (dose: 200.0 mg/kg/injection, schedule: Q01DX009 (ip), vehicle: saline): 102 % of control

CN(C)c1ccc(C(Cl)[O][Sn]([CH3])([CH3])[Cl])cc1 (stereo not given)
T/C [3]: 106 % of control and 116 % of control | T/C (dose: 12.5 mg/kg/injection, schedule: Q04DX002 (ip), vehicle: saline): 110 % of control | T/C [4]: 101 % of control and 106 % of control | T/C (dose: 25.0 mg/kg/injection, schedule: Q04DX002 (ip), vehicle: saline): 115 % of control | T/C [5]: 116 % of control and 120 % of control | T/C (dose: 50.0 mg/kg/injection, schedule: Q04DX002 (ip), vehicle: saline): 100 % of control | T/C (dose: 100.0 mg/kg/injection, schedule: Q04DX002 (ip), vehicle: saline): 98 % of control

CSC1SC(C#N)=C(N)C1[n+]1ccccc1 (stereo not given)
T/C [4]: 105 % of control | T/C [5]: 105 % of control | T/C [14]: 104 % of control

Cc1ccc(N=Cc2cccs2)cc1Cl
T/C [6]: 94 % of control | T/C [7]: 113 % of control | T/C [8]: 106 % of control

CSC(SC)c1cc(-c2c(Cl)cccc2Cl)no1
T/C [12]: 102 % of control | T/C [13]: 103 % of control | T/C (dose: 240.0 mg/kg/injection, schedule: Q01DX005 (ip), vehicle: saline with Tween-80): 103 % of control

CCOC(=O)CCN(CCC(=O)OCC)c1ccccn1
T/C [1]: 105 % of control | T/C [2]: 99 % of control | T/C (dose: 200.0 mg/kg/injection, schedule: Q01DX005 (ip), vehicle: Klucel (hydroxypropylcellulose) (HPC)): 101 % of control

N#C/C(=C1C=C/C(=N/O)C=C/1Cl)c1ccccc1
T/C [9]: 95 % of control | T/C [10]: 93 % of control | T/C [11]: 94 % of control | T/C (dose: 400.0 mg/kg/injection, schedule: Q01DX009 (ip), vehicle: saline with Tween-80): 94 % of control

CCOC(=O)C1CC1C(c1cccnc1C)S(=O)(=O)c1ccccc1 (stereo not given)
T/C [14]: 100 % of control | T/C (dose: 200.0 mg/kg/injection, schedule: Q04DX002 (ip), vehicle: saline with Tween-80): 99 % of control | T/C (dose: 400.0 mg/kg/injection, schedule: Q04DX002 (ip), vehicle: saline with Tween-80): 97 % of control

CCN(CC)c1ccc(/C=C/c2ccnc3ccccc23)cc1
T/C (dose: 12.5 mg/kg/injection, schedule: Q01DX009 (ip), vehicle: saline with Tween-80): 118 % of control | T/C (dose: 12.5 mg/kg/injection, schedule: Q04DX003 (ip), vehicle: saline sonified): 100 % of control | T/C (dose: 12.5 mg/kg/injection, schedule: Q04DX003 (ip), vehicle: saline with Tween-80): 90 % of control | T/C (dose: 20.0 mg/kg/injection, schedule: Q04DX003 (ip), vehicle: saline): 113 % of control | T/C [15]: 104 % of control | T/C (dose: 25.0 mg/kg/injection, schedule: Q04DX003 (ip), vehicle: saline sonified): 104 % of control | T/C (dose: 25.0 mg/kg/injection, schedule: Q04DX003 (ip), vehicle: saline with Tween-80): 100 % of control | T/C (dose: 40.0 mg/kg/injection, schedule: Q04DX003 (ip), vehicle: saline): 118 % of control | T/C (dose: 50.0 mg/kg/injection, schedule: Q04DX003 (ip), vehicle: saline sonified): 109 % of control | T/C (dose: 50.0 mg/kg/injection, schedule: Q04DX003 (ip), vehicle: saline with Tween-80): 109 % of control

O=C1CCCCc2ccc(O)cc21
T/C (dose: 100.0 mg/kg/injection, schedule: Q01DX009 (ip), vehicle: gum acacia): 104 % of control | T/C (dose: 200.0 mg/kg/injection, schedule: Q01DX009 (ip), vehicle: gum acacia): 102 % of control | T/C (dose: 400.0 mg/kg/injection, schedule: Q01DX009 (ip), vehicle: gum acacia): 110 % of control

COC(=O)C1=C(C(=O)OC)C2C3CC4C(C13)C42
T/C (dose: 9.4 mg/kg/injection, schedule: Q01DX009 (none), vehicle: saline): 105 % of control | T/C (dose: 18.75 mg/kg/injection, schedule: Q01DX009 (none), vehicle: saline): 106 % of control | T/C (dose: 37.5 mg/kg/injection, schedule: Q01DX009 (none), vehicle: saline): 105 % of control | T/C (dose: 75.0 mg/kg/injection, schedule: Q01DX009 (none), vehicle: saline): 99 % of control

O=C1C2C3C=CC(C2C(=O)N1CN1CCSCC1)C1C2C(=O)N(CN4CCSCC4)C(=O)C2C31 (stereo not given)
T/C [15]: 99 % of control | T/C [9]: 116 % of control and 121 % of control | T/C [10]: 165 % of control | T/C [11]: 166 % of control and 194 % of control

CC(C)CC(C)(c1ccc(O)cc1)c1ccc(O)cc1
T/C [10]: 105 % of control | T/C [11]: 105 % of control

COc1ccc(C(=O)C(CN(C)C)CN(C)C)c(OC)c1
T/C (dose: 7.5 mg/kg/injection, schedule: Q01DX005 (ip), vehicle: saline): 121 % of control | T/C (dose: 15.0 mg/kg/injection, schedule: Q01DX005 (ip), vehicle: saline): 108 % of control

CC1=C(C(=O)N=C(N)C(Cl)(Cl)Cl)SCCO1
T/C (dose: 50.0 mg/kg/injection, schedule: Q01DX005 (ip), vehicle: distilled water + alcohol): 108 % of control | T/C (dose: 100.0 mg/kg/injection, schedule: Q01DX005 (ip), vehicle: distilled water + alcohol): 109 % of control | T/C (dose: 200.0 mg/kg/injection, schedule: Q01DX005 (ip), vehicle: distilled water + alcohol): 117 % of control
